Measured values as given in publication PMC8717366, “Synthesis and Pharmacological Characterization of Visabron, a Backbone Cyclic Peptide Dual Antagonist of α4β1 (VLA-4)/α9β1 Integrin for Therapy of Multiple Sclerosis” (JACS Au, 2021).
Read-outs that look alike come from different tables or passages of the source. Numbered stars: 1 amine (or outer) side, 2 acyl side, 3 side chain; on linkers, the order of the positions; unused ones are H or OH. Bridge positions count the residues as written; N and C are the ends. Square brackets hold non-standard residues; d marks the D form. Peptide text beside a SMILES is read from it. CO = O=C([*:1])[*:2]; Nlys = NCCCCNCC(=O)O

Assay: Pharmacokinetics in rats after single i.v. dose
Format: in vivo, Male Wistar rats
Method: Pharmacokinetics of Visabron c (4-4) following iv injection:
Animals-Male Wistar rats (275−300 g, purchased from Harlan, Israel), were used for the surgical procedure. An indwelling cannula was implanted into the right jugular vein, and exteriotrated at the dorsal neck to enable serial systemic blood sampling. After completion of the surgical procedure, the animals were transferred to cages to recover overnight (12−18 h). The animals had free access to water and food during the recovery period and throughout the entire experiment. All surgical and experimental procedures were approved by the Animal Experimental Ethics Committee of the Hebrew University, Hadassah Medical School, Jerusalem. […]
PK Study-A single dose of Visabron c(4-4) in sterile water (300 μL of a 0.514 mg/mL solution, which was equivalent to a final dose of 0.514 mg/kg) was administered i.v. via the indwelling jugular cannula to each rat. Following dose administration, blood samples were taken at pre -dose, 10, 15, 30, 60, 90 and 130-min from the onset of the drug administration (time zero) via the right jugular vein. Approximately […]
350 μL of whole blood was removed, and placed in sodium-heparin containing tubes, and immediately placed in wet ice. Blood was centrifuged at 5322 g for 10 min and a 150 μL aliquot of plasma was transferred to fresh centrifuge tubes and stored at −20 °C pending analysis. PK analysis was performed using standard non-compartmental analysis models in Phoenix WinNonlin®.
Bioanalytical Method for the Detection of Vis-c(4-4) in Rat Plasma: Plasma samples (150 μL) were spiked with metoprolol (20 μL, 10 μg/mL) as an internal standard. 200 μL of ACN was added to each sample and vortex-mixed for 1 min. The samples were then centrifuged (14635 g, 10 min), and the supernatant was transferred to fresh glass tubes and evaporated to dryness (Vacuum Evaporation System, Labconco, Kansas City, MO, USA). The glass tubes were reconstituted in 80 μL of mobile phase and centrifuged a second time (14635 g, 10 min). The amount of the compounds was determined using an HPLC−MS Waters 2695 Separation Module, equipped with a Micromass ZQ detector. The resulting solution was injected (10 μL) into the HPLC sy stem. The system was conditioned as follows :
Xterra MS C18, 3.5 µm, 100A, 100 x 2.1 mm column (Waters), an isocratic mobile phase of ACN : water supplemented with 0.1% formic acid (15:85, v/v) and a flow rate of 0.2 mL/ min at 35 °C was used. The limit of quantification the peptide was 25 ng/mL. Calibration curve was prepared by spiking the standard working stock solution with 15 μL of the different concentrations, 20 μL IS (10 μg/ mL) and 135 μl blank rat plasma in a centrifuge tube on the analysis day . […]
range of 25 ng/Ml to 2.5 μg/mL.
Blood cell counting and biochemistry analyzes : Male C57BL/6 mice were injected intravenously with 0.2 ml of peptide in a dose of 500 mg/kg. No immediate toxicity symptoms were measured a nd thereafter, acute tolerability was observed. Since the hematopoietic system is one of the most sensitive parameters to assess the toxicity of drugs in humans and animals, tail vein blood samples were taken from control (n=3) and 250 mg/kg Visabron c (4-4) injected mice (n=5), after 24 hours from injection and submitted for hematocrit cell counting and biochemical analysis. […]
blood count and electrolytes of special importance are normal liver (ALP, alkaline phosphatase; ALT, alanine transaminase and AST, aspartate transaminase) functions and normal kidney (creatinine and blood urea nitrogen) functions, indicating sufficient organ integrity at the end of the experimental period. The data obtained was similar to hematological parameters reported for this mice strain5, and clearly indicates lack of differences on kidney and liver parameters between the two mice groups.
Visabron c (4-4) safety by in vitro evaluation using PhosphoSens - CSox based kinase assays:
A powerful method was used to measure the activity of recombinant protein kinases using a […]

Compound: CSCC[C@@H]1NC(=O)[C@H]([C@@H](C)O)NC(=O)CN(C(=O)[C@@H](N)CCCCN)CCCCNC(=O)NCCCCN(CC(=O)N[C@@H](CC(C)C)C(N)=O)C(=O)[C@H](CC(=O)O)NC(=O)[C@H](CC(C)C)NC1=O [visabron c (4–4)] (H-K[Nlys]TMLD[Nlys]L-NH2; linker 2-7 via CO)
- half-life (rat, in vivo, iv, 0.515 mg/kg, single i.v. dose 0.515 mg/kg, n = 4): 24 min
- AUC (rat, in vivo, iv, plasma, single i.v. dose 0.515 mg/kg, n = 4): 777 ng·h/mL
- Vd (rat, in vivo, iv, read-out: volume of distribution): 0.39 L/kg
- Vd (rat, in vivo, iv, single i.v. dose 0.515 mg/kg, n = 4, Table 3, read-out: Vd): 0.381 ± 0.029 L/kg
- clearance (rat, in vivo, iv, single i.v. dose 0.515 mg/kg, n = 4, noncompartmental analysis): 11.1 ± 0.5 mL/min/kg
- t1/2 (single i.v. dose 0.515 mg/kg, n = 4, 0.515 mg/kg): 23.8 ± 1.6 min
